Results as given in the supplement of paper PMC10307832.

Legend:
Experiment in all cases: relative viability (nuclei count vs DMSO), 5 days (fraction); higher = more cells survive
[1] = compound: Cc1cnc(CNC(=O)c2c(=O)c3ccc(N4CCCN(C)CC4)nc3n3c2sc2ccccc23)cn1 [CX-5461] + COc1cccc2cc(-c3nc([C@H]4CC[C@H](C(=O)O)CC4)n4ncnc(N)c34)[nH]c12 [OSI-027] (partner 0.5 µM)
Method in brief: (§1)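 Dosing by pin tool came one day after lung cancer cell lines were seeded in 1536-well plates, using either one drug or a fixed anchor-drug dose plus five library-drug doses (not always all listed) in √10 steps. After 5 days, nuclei were counted on 4× images. Relative viability is treated-well nuclei count divided by vehicle-well nuclei count, and values are medians of duplicate plates.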

[2] = compound: Cc1cnc(CNC(=O)c2c(=O)c3ccc(N4CCCN(C)CC4)nc3n3c2sc2ccccc23)cn1 [CX-5461] + Cc1cc(Nc2cc(N3CCN(C)CC3)nc(Sc3ccc(NC(=O)C4CC4)cc3)n2)n[nH]1 [Tozasertib] (partner 0.1 µM)
Method in brief: as §1

[3] = compound: Cc1cnc(CNC(=O)c2c(=O)c3ccc(N4CCCN(C)CC4)nc3n3c2sc2ccccc23)cn1 [CX-5461] + NC(=O)Nc1cc(-c2cccc(F)c2)sc1C(=O)N[C@H]1CCCNC1 [AZD7762] (partner 0.2 µM)
Method in brief: as §1

[4] = compound: O=C(Nc1cc(C(F)(F)F)cc(C(F)(F)F)c1)c1cc(Cl)ccc1O [IMD-0354] + Cc1nc(NC(=O)N2CCC[C@H]2C(N)=O)sc1-c1ccnc(C(C)(C)C(F)(F)F)c1 [Alpelisib] (partner 2 µM)
Method in brief: as §1

| Cell Line | relative viability ([1]; first compound 0.01 µM) | relative viability ([1]; first compound 0.03162 µM) | relative viability ([1]; first compound 0.1 µM) | relative viability ([1]; first compound 0.3162 µM) | relative viability ([1]; first compound 1 µM) | relative viability ([2]; first compound 0.01 µM) | relative viability ([2]; first compound 0.03162 µM) | relative viability ([2]; first compound 0.1 µM) | relative viability ([2]; first compound 0.3162 µM) | relative viability ([2]; first compound 1 µM) | relative viability ([3]; first compound 0.01 µM) | relative viability ([3]; first compound 0.03162 µM) | relative viability ([3]; first compound 0.1 µM) | relative viability ([3]; first compound 0.3162 µM) | relative viability ([3]; first compound 1 µM) | relative viability ([4]; first compound 0.04 µM) | relative viability ([4]; first compound 0.1265 µM) | relative viability ([4]; first compound 0.4 µM) | relative viability ([4]; first compound 1.265 µM) | relative viability ([4]; first compound 4 µM) |
| --- | --- | --- | --- | --- | --- | --- | --- | --- | --- | --- | --- | --- | --- | --- | --- | --- | --- | --- | --- | --- |
| NCI-H2342 | 0.633 | 0.599 | 0.584 | 0.642 | 0.598 | 0.521 | 0.524 | 0.462 | 0.497 | 0.566 | 0.444 | 0.486 | 0.484 | 0.522 | 0.469 |  |  |  |  |  |
| LK-2 | 0.268 | 0.173 | 0.185 | 0.162 | 0.179 | 0.18 | 0.182 | 0.162 |  | 0.183 | 0.443 | 0.376 | 0.299 |  | 0.223 | 1.77 | 0.711 | 0.647 | 0.611 | 0.372 |
| SK-LU-1 | 0.347 | 0.321 | 0.386 |  | 0.203 | 0.33 | 0.339 | 0.247 |  | 0.189 |  |  |  |  |  | 1.39 | 0.658 | 0.472 | 0.174 | 0.215 |
| HCC-366 | 0.987 | 1 | 0.89 | 0.764 | 0.175 | 0.0846 | 0.0825 | 0.0964 | 0.116 | 0.0753 | 0.285 | 0.254 | 0.177 | 0.117 | 0.0411 | 0.509 | 0.727 | 0.148 | 0.373 | 0.0309 |
| 201T | 0.911 | 0.669 | 0.726 | 0.502 | 0.552 | 0.921 | 1.04 | 0.945 | 0.847 | 0.925 | 0.6 | 0.682 | 0.621 | 0.543 | 0.491 | 1.02 | 1.08 | 0.683 | 1.1 | 0.351 |
| HCC-827 | 0.838 | 0.828 | 0.79 | 0.757 | 0.735 | 0.451 | 0.376 | 0.425 | 0.411 | 0.43 | 0.193 | 0.195 | 0.193 | 0.22 | 0.182 | 0.888 | 0.978 | 0.752 | 0.574 | 0.216 |
| NCI-H647 | 0.742 | 0.565 | 0.669 | 0.566 | 0.467 | 0.386 | 0.335 | 0.307 | 0.262 | 0.186 | 0.617 | 0.384 | 0.489 | 0.439 | 0.0774 | 1.77 | 0.995 | 0.623 | 0.144 | 0.173 |
| NCI-H2023 | 0.387 | 0.386 | 0.184 | 0.329 | 0.0856 | 0.306 | 0.325 | 0.237 | 0.283 | 0.0913 |  |  |  |  |  | 0.696 | 0.577 | 0.439 | 0.312 | 0.122 |
| NCI-H520 | 0.193 | 0.247 | 0.24 | 0.197 | 0.266 | 0.442 | 0.419 | 0.438 |  | 0.425 |  |  |  |  |  | 0.906 | 0.948 | 0.381 | 0.383 | 0.214 |
| RERF-LC-KJ | 0.56 | 0.628 | 0.572 | 0.528 | 0.434 | 0.449 | 0.516 | 0.287 | 0.509 | 0.245 | 1 | 0.897 | 0.954 | 0.807 | 0.901 | 0.823 | 0.71 | 0.586 | 0.404 | 0.303 |
| A-427 | 0.488 | 0.534 | 0.542 |  | 0.378 | 0.195 | 0.247 | 0.212 |  | 0.212 | 0.807 | 0.637 | 0.612 | 0.627 | 0.408 | 1.04 | 1.13 | 0.815 | 0.69 | 0.104 |
| NCI-H441 | 0.696 | 0.659 | 0.607 | 0.534 | 0.408 | 0.515 | 0.742 | 0.643 | 0.678 | 0.362 | 1 | 1.31 | 1.11 | 1.36 | 0.963 |  | 0.78 | 0.398 | 0.285 | 0.217 |
| NCI-H1703 |  |  |  |  |  |  |  |  |  |  |  | 0.11 | 0.104 |  | 0.107 | 0.312 | 0.269 | 0.282 | 0.179 | 0.121 |
| NCI-H1792 | 0.657 | 0.786 | 0.763 | 0.759 | 0.659 |  |  |  |  |  | 0.838 | 0.677 | 0.5 | 0.667 | 0.0872 | 0.822 | 0.506 | 0.874 | 0.677 | 0.336 |
| Calu-6 |  |  |  |  |  |  |  |  |  |  |  |  |  |  |  | 0.925 | 0.909 | 0.672 | 0.101 | 0.0892 |
| SW 1573 | 0.61 | 0.621 | 0.401 | 0.477 | 0.179 | 0.183 | 0.161 | 0.147 | 0.172 | 0.166 |  |  |  |  |  | 0.768 | 0.788 | 0.328 | 0.202 | 0.15 |
| PC-3 [JPC-3] | 0.828 | 0.811 | 0.773 | 0.668 | 0.707 | 0.899 | 0.947 | 0.851 | 0.792 | 0.847 | 0.803 |  | 0.822 | 0.865 | 0.759 | 1.1 | 1.04 | 0.714 | 0.774 | 0.183 |
| EMC-BAC-2 | 0.334 | 0.376 | 0.338 | 0.322 | 0.242 | 0.275 | 0.314 | 0.247 | 0.252 | 0.244 | 1.06 | 1.04 | 0.864 | 0.919 | 0.566 | 0.796 | 0.766 | 0.448 | 0.611 | 0.25 |
| NCI-H1395 | 0.639 | 0.625 | 0.63 | 0.475 | 0.515 | 0.811 | 0.796 | 0.757 | 0.574 | 0.588 | 0.377 | 0.328 | 0.382 | 0.384 | 0.337 | 0.992 | 0.889 | 0.98 | 0.465 | 0.324 |
